Laboratory results published in patent US8367039B2, “Compounds for the diagnosis of diseases associated with VCAM expression” (Guerbet, priority 2007, dated 2013).

Molecular target: T1, VCAM-1 (Mus musculus, UniProt P29533)
T1 construct: from tissue; host or cells: liver of Balb/c mice in vivo, Con-A-induced hepatitis
T1 sequence (P29533 25-739): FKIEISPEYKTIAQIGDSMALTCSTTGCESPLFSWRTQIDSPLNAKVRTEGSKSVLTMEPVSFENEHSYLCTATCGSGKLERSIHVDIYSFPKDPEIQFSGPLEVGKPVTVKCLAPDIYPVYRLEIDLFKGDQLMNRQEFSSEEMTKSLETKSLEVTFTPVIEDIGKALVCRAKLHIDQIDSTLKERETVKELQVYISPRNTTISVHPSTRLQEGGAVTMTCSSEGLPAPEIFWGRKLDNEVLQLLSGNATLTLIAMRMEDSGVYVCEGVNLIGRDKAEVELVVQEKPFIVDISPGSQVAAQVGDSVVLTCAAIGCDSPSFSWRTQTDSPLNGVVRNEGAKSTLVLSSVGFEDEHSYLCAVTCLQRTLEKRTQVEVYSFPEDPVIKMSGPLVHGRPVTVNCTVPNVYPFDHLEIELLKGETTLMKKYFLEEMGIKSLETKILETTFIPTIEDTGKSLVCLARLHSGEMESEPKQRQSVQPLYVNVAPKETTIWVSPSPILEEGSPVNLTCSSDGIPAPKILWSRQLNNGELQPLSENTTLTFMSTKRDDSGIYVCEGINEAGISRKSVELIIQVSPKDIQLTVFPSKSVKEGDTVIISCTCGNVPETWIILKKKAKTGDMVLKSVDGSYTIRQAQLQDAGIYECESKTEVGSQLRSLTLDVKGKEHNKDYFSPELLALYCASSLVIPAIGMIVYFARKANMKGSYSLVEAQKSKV
Assay: MRI in vivo on a model of Con-A-induced hepatitis in mice
Conditions: 100 μmol Gd/kg i.v., FIG. 3
Experimental: Before the MRI acquisition, the mice are anesthetized with pentobarbital. All the experiments are carried out on a 200 MHz Bruker spectrometer (4.7 T) equipped with a vertical magnet and with a microimaging system.
The hepatitis is induced by i.v. injection of 20 mg/kg of Con-A in Balb/c mice weighing approximately 26 g. The literature reports that VCAM-1 is massively expressed in the liver between 4 and 8 hours after the injection of Con-A. The MRI protocol is the following: (1) the precontrast MRI begins 4h30 after the injection of Con-A; (2) the contrast product is injected at the dose of 100 μmol Gd/kg approximately 5 h after the injection of Con-A; (3) several post-contrast acquisitions are carried out for 1 h30 every 7 minutes. […]
For the two models, the SI values are measured in various regions of interest (at the level of the arterial wall of the abdominal aorta or whole liver) using the OSIRIS image analysis software. […] The SI value is measured on all the image slices where the arterial wall and the liver are visible. […] The increase in the signal/noise ratio (% ΔSNR) is calculated according to the following equation: % ΔSNR=[(SIpost/SDnoise)−(SIpre/SDnoise)]/[SIpre/SDnoise]×100 where SDnoise is the standard deviation of the noise measured on a region outside the animal.

change in signal/noise ratio (% ΔSNR) of the liver over time, hepatitis versus healthy mouse: substantially identical
Compound: O=C([O-])CN1CCN(CC(=O)[O-])CCN(CC(=O)O)CCN(CC(=O)[O-])CC1.[Gd+3] [Gd-DOTA]
